Data published in patent US9340768B2, “Transformation of glycerol and cellulosic materials into high energy fuels” (THE TEXAS A&M UNIVERSITY SYSTEM, priority 2008, dated 2016).
“Also recorded” adds a separate entry of the source.

Assays:
Format in all cases: cell-based, Debaryomyces hansenii
[1] = tested on: D. hansenii; test: OmniLog Phenotype Microarray, osmolytes (PM9); conditions: 30° C., OMNILOG PM
Protocol: PM assays. Inoculums for PM panels were prepared according to the manufacturer's protocols with modifications; Procedures for S. cerevisiae and other Fungi version 8 Feb. 2006 (Biolog) was used to prepare inoculums for PM01, PM02, and PM09, while version 29 Apr. 2008 (Biolog) was used for PM10. In brief, D. hansenii were streaked onto defined Medium A (Table 6) and cultivated at 30° C. for 48 hours. Cells were redistributed onto fresh agar using a sterile swab and incubated for an additional 4 hours at 30° C. to ensure active growth and avoid late-growth clumping (Oliver R Homann, Houjian Cai, 2005). (Kimura et al., 2004)
Cells were then transferred into the appropriate PM inoculation fluid (Table 7) and re-suspended to 62% transmittance (approximately 200 cells per 100 μL assay). PM1 and PM2 measure carbon source utilization and/or sensitivity; as such, the inoculation fluid lacks a defined carbon source (e.g., glycerol or glucose). In contrast, the inoculating fluids for PM9 (osmolytes) and PM10 (pH) required the inclusion of a carbon source (Table 7); in this case glucose was supplemented to 100 mM.
D. hansenii-containing inoculation fluid was inoculated into PM panels and incubated at 30° C. for 6.5 days. Color intensity for each well was measured every 15 minutes. Exemplary time course (kinetic) results (means) from representative PM assays are plotted.
In order to simplify the comparison of individual assay conditions, the full time-course kinetic plots were converted into a single unitless numerical value, which is weighted to more greatly value latter time points (e.g., endpoints), as described by Homann et al. (2005). Signal value=[(average signal+maximum signal)/2−average signal over first 2 h]; Represent the full time course by a single number; Weight the value towards latter time points; Subtract the “baseline” signal level for each well (Oliver R Homann, 2005) and Replicate PM assay runs were conducted, and the average of the signal values was used.

[2] = tested on: D. hansenii; test: Growth and oleagenicity of D. hansenii on pure carbon sources (Nile red plate staining); conditions: for Growth: carbon source at 30 g/L in minimal media; for Oleagenicity: carbon source at 30 g/L, Nile Red fluorescence
Protocol: D. hansenii (Dh) and S. cerevisiae (Sc) grown on minimal media containing no carbon source, 30 g/L of glucose, arabinose, xylose, carboxymethylcellulose or cellobiose. D. hansenii grew well on media containing glucose, arabinose and cellobiose. Lipid accumulation was indicated by Nile Red fluorescence in D. hansenii grown on glucose but not on cellobiose.
Culture media and cultivation conditions. For liquid culture, single colony of D. hansenii or S. cerevisiae were pre-cultured in 2 mL YPD or other desired media (see below) and incubated at 30° C. for 24 hr. Cells were counted using a hemacytometer and spun down at 3000 rpm for 15 minutes. Cells at a concentration of 1×10^6/mL were used to inoculate the desired media with 1% of the total volume. Medium A with limited nitrogen source (glucose 30 g/L, yeast extract 1.5 g/L, NH4Cl 0.1 g/L, KH2PO4 7.0 g/L, Na2HPO4 1.983 g/L, MgSO4.7H2O 1.5 g/L, FeCl3.6H2O 0.08 g/L, ZnSO4.7H2O 0.01 g/L, CaCl2.2H2O 0.1 g/L, MnSO4.H2O 0.07 mg/L, CuSO4.5H2O 0.1 mg/L, Co(NO3)2.6H2O 0.1 mg/L, pH 5.5; see Kimura et al., 2004) was used to support the growth of D. hansenii and induce cellular lipid accumulation. Medium A with sufficient nitrogen supply (NH4Cl 5 g/L) was used to support growth without the induction of lipid accumulation. To test the growth of D. hansenii on carbon sources other than glucose, glucose was dropped out from medium A and replaced with desired carbon sources at the same concentration except for glycerol, which was at 10% or 20% (v/v). […] For making media containing sorghum juice, raw juice was filter sterilized and added in the media at various concentrations of 5%, 10%, 25%, and 50% (v/v). Crude glycerol (Future Fuel Chemical Company, Arkansas, USA) contained 6% water, 88% glycerol, 2.564% ash by weight.
Nile red plate staining assay. Nile red (9-diethylamino-5H-benzo[α]phenoxazine-5-one) obtained from Sigma-Aldrich (Missouri, USA) was dissolved in Dimethyl sulfoxide (DMSO) at a concentration of 0.5 mg/mL and supplemented in medium A at a final concentration of 0.5 μg/mL. For direct observation of cellular lipid accumulation, D. hansenii grown on solid medium A with Nile red were observed using a UV light source (312 nm) as described (Spiekemann et al., 1999).

[3] = tested on: D. hansenii; test: Microscopic quantification of secreted (extracellular) lipid bodies, Nile red; conditions: 100 nM wortmannin, 144 hr post inoculation; untreated control more than 80 per 100 cells
Protocol: (§1) Fluorescent microscopy. For Nile red stained cells or cultures, microscopic photographs were taken with an Olympus BX51 microscope (Olympus America, New York, USA) equipped with an Olympus DP70 camera using a 530-550 nm excitation filter, a 570 nm diachronic mirror and a 590 nm emission filter with a 60× objective lens. For microscopic quantification of secreted lipid bodies, 50 μL of the cell suspension in media A containing 0.2% agarose and Nile red, with or without the addition of 100 nM wortmannin, were inoculated in triplicate in microscopic frames that allow the agarose-based matrix to be sealed between two pieces of cover glasses. Slides were incubated in 90% moisture at 30° C. At 0, 48, 72, 96, 120, 144 hr post inoculation, the number of the cells and extracellular lipid bodies (stained with Nile red) were quantified. In parallel, the cells were stained with FUN1 (Invitrogen) for viability determination.

[4] = tested on: D. hansenii; test: Cell viability by FUN1 stain and microscopic quantification; conditions: 100 nM wortmannin, FUN1 stain
Protocol: as §1

Row | Compound | level of salt solution tolerated without severe compromise in growth [1] | Oleagenicity [2] | also measured
1 | [Cl-].[K+] [KCl] | ≤ 6% | – | –
2 | O=C[C@H](O)[C@@H](O)[C@H](O[C@@H]1O[C@H](CO)[C@@H](O)[C@H](O)[C@H]1O)[C@H](O)CO [Cellobiose] | – | No | Growth [2]: grew well
3 | COC[C@H]1OC(=O)c2coc3c2[C@@]1(C)C1=C(C3=O)[C@@H]2CCC(=O)[C@@]2(C)C[C@H]1OC(C)=O [wortmannin] | – | – | lipid bodies released from D. hansenii cells [3]: lower than 10 per 100 cells; cell viability [4]: remained unaffected; also recorded: not affected
4 | [Cl-].[Na+] [NaCl] | up to 6.5% | – | –
5 | O=S(=O)([O-])[O-].[Na+].[Na+] [Na2SO4] | ≤ 5% | – | –
6 | O=C[C@@H](O)[C@H](O)[C@H](O)CO [Arabinose] | – | No | Growth [2]: grew well
7 | O=C[C@H](O)[C@@H](O)[C@H](O)CO [Xylose] | – | No | –
